Earlier results, collected in patent US20110166187A1, “METHODS OF USING SUSTAINED RELEASE AMINOPYRIDINE COMPOSITIONS” (priority 2004, published 2011).

System: voltage dependent, neuronal potassium channels

Nc1ccncc1 [fampridine, 4-aminopyridine]
concentrations at which it appears to be a specific blocker of voltage dependent, neuronal potassium channels: 1 to 2 µM
